{
  "source": "paper PMC8692993",
  "about": "“PPARα and PPARγ activation is associated with pleural mesothelioma invasion but therapeutic inhibition is ineffective” (iScience, 2021)",
  "key": {"AB1-Luc": {"test_system": "AB1-Luc", "assay": "Intraperitoneal AB1-Luc mesothelioma model, bioluminescence and histology", "assay_type": "in vivo, BALB/c mice", "details": "for Tumor growth (bioluminescence, average radiance): versus controls", "description": "Cells were trypsinized and washed two times in phosphate buffer saline (PBS) and counted with trypan blue dye. For the SC tumour model, mice were shaved on the right-hand flank and inoculated with 5x10^5 AB1 or 1x10^6 AE17 cells suspended in 100 μL PBS. Tumour volume (mm^3) was monitored with callipers. For the IPL tumour model, mice were anaesthetised under continuous isofluorane and inoculated with 5 x 10^5 AB1 or 1 x 10^6 AE17 cells suspended in 200 μL PBS into the pleural space as previously described ([Lansley et al., 2015]) Tumour size was determined by weighting together the tumour with the lungs minus the weight of aged matched healthy lungs. For the IP tumour model, mice where inoculated in the intraperitoneal cavity on the right flank with 5x10^5 AB1-Luc cells suspended in 200 μL PBS. Tumour size was determined by in vivo imaging system (IVIS), see below. All mice were euthanized in accordance with animal ethics guidelines.\nFemale BALB/cJAusb mice (10–12 weeks) were inoculated IP with 5 x 10^5 AB1-Luc on their right flank. Mice were randomly allocated to the different groups on the first treatment day. Treatment with ABT + GW6471 or GW6471 alone started on day 4 after tumour inoculation. IP Injections and concentrations were used as previously described in the “Mouse pharmacokinetic studies” section in experimental model and subject details. Initial mouse weight was measured immediately before the first injection, and it was used to calculate weight change daily. Mice were dosed for a maximum of seven consecutive days. In vivo imaging system (IVIS) (see below) was performed on days 3 (before treatment), 7 (during treatment) and 11 (after treatment). Mice were euthanized on day 11 in accordance with animal ethics guidelines and organs were harvested for staining.\nXenoLight D-Luciferin potassium salt (PerkinElmer, VIC, Australia) was used at a 150 mg/kg concentration dissolved in sterile PBS. Approximately 150 μL (15 mg/mL concentration) was injected subcutaneously per mouse. […]"}, "[1]": {"test_system": "VGE62 human mesothelioma cell line", "assay": "Matrigel invasion scratch assay", "assay_type": "cell-based", "details": "VGE62, 0.5, 1, 10 μM, concentration-dependent, p <0.0001", "description": "Cells were harvested and seeded in Incucyte®ImageLock 96-well plates (Essen BioScience) at a density of 10 x 10^4 cells/mL overnight. A scratch wound was performed on the confluent cells with the 96-pin IncuCyte WoundMaker Tool (Essen BioScience). For migration assays, cells were washed with PBS once before adding 100 μL media with GW6471 at indicated concentrations. For matrigel invasion assays, cells were washed with PBS once before adding 50 μL of matrigel basement membrane matrix (FAL356231; Corning, NY, USA) at 8 mg/mL; lastly 100 μL media with GW6471 at indicated concentrations were added on top of the matrigel. Wounded cells were incubated in the IncuCyte ZOOM® at 37°C with 5% CO2. Data were analysed using the Incucyte® Scratch Wound Cell Migration Software Module and calculating the Relative Wound Density (%) (RWD) for both migration and invasion assays."}, "[2]": {"test_system": "JU77 human mesothelioma cell line", "assay": "Soft agar colony formation assay", "assay_type": "cell-based", "details": "JU77, GW6471 0.5-8 μM, p <0.05", "description": "Cells were incubated with different concentrations of GW6471 (from 0.5 μM to 8 μM) for a soft agar colony formation assay ([Horibata et al., 2015]). Briefly, 3% 2-hydroxyethyl agarose (agarose, A4018; Sigma-Aldrich, Australia) was prepared as stock solution. The bottom layer was prepared by incubating 20% agarose gel in R10 complete medium, RPMI 1640 (Invitrogen) supplemented with 10% foetal calf serum (FCS; Life Technologies), 20 mM HEPES (Sigma-Aldrich), 0.05 mM 2-mercaptoethanol (pH 7.2; Merck, Kilsyth, Australia), 60 μg/mL penicillin (Life Technologies), 50 μg/mL gentamicin (David Bull Labs), for a final concentration of 0.6%, 2mL per well, at 4°C for 1 h to allow the mixture to solidify, then incubating at 37°C for at least 30 min before seeding the cells. The cell-containing layer (10% agarose gel in R10 complete medium for a final concentration of 0.3%, 1 mL per well) was prepared with a concentration of 1,000 cells/mL. 1 mL of cells was then transfer to each well. […]\nColony counting was performed by adding 1 mL of 0.005% crystal violet (C0775; Sigma-Aldrich, Australia) in PBS on top of each well and incubating at room temperature for 24 h. Pictures were taken and colonies counted with ImageJ (v1.52a)."}, "AE17": {"test_system": "AE17", "assay": "MTT cell metabolic activity assay, AE17", "assay_type": "cell-based, mouse", "details": "AE17, 48 h, 0.391-100 μM; effect at higher micromolar concentrations", "description": "Cells were harvested and seeded in 96-flat well plates (Corning) at a density of 5 x 10^4 cells/mL overnight. Media was removed and 100 μL media with GW6471 or GW9662 at indicated concentrations was added to each well. Cell viability and toxicity were measured at 48 h. Cells were incubated with 50 μL of a 2 mg/mL solution of (3-(4,5-dimethyl-thiazole-2-yl)-2,5-[…] tetrazolium (MTT, Sigma-Aldrich) in PBS for 4 h and then exposed to 100 μL dimethyl sulfoxide (DMSO; Sigma-Aldrich). Cell viability was measured by absorption at 570 nm in a microplate spectrophotometer (Spectromax 250 plate reader). Results are shown as relative cell viability."}},
  "data": [
    {"smiles": "CCC(=O)NC[C@H](Cc1ccc(OCCc2nc(-c3ccccc3)oc2C)cc1)N/C(C)=C\\C(=O)c1ccc(C(F)(F)F)cc1", "note": "[GW6471]", "values": [
      {"measurement": "Tumor growth (bioluminescence, average radiance)", "setting": "AB1-Luc; GW6471 10 mg/kg IP daily from day 4, with ABT 50 mg/kg pre-treatment (ABT + GW6471)", "result": "no significant effect on tumor growth"},
      {"measurement": "Tumor growth (bioluminescence, average radiance)", "setting": "AB1-Luc; GW6471 10 mg/kg IP daily from day 4, without ABT", "result": "no significant effect on tumor growth"},
      {"measurement": "Mesothelioma invasion and proliferation in vivo (histology)", "setting": "AB1-Luc; GW6471 with or without ABT, all mice showed invasion into intestine and pancreas", "result": "no impact on mesothelioma invasion and proliferation in vivo"},
      {"measurement": "Invasion into matrigel (relative wound density)", "setting": "[1]", "result": "significantly inhibited invasion"},
      {"measurement": "Number of colonies formed", "setting": "[2]", "result": "significant reduction in the number of colonies formed"},
      {"measurement": "Cell viability (MTT)", "setting": "AE17", "result": "lowered viability"}
    ]}
  ]
}
